Where “and” joins values, the source holds several entries; their conditions need not be identical. Equal values may be shown once.
Key:
[1] = target: T1, RyR1 R2163C (Oryctolagus cuniculus, UniProt P11716, R2163C); assay: Time-lapse [Ca2+]ER measurement, HEK293 cells expressing RyR1 R2163C; type: cell-based; settings: for ER luminal [Ca2+] change (F/F0): Fig. 5D source data, RyR1-R2163C
T1 construct: expressed in transfected cells
Protocol: HEK293 cells stably expressing R-CEPIA1er and RyRs (WT RyR1, RyR1-W881A, RyR1-W995A, RyR1-R2163C, and WT RyR2)[26],[27] were used in this study. Briefly, the cells were seeded at a density of 2 × 10⁴ cells/well in a 96-well black, clear-bottom plate (Corning). Doxycycline (2 µg/mL) was added 12 h after seeding, and the medium was replaced 24 h later with HEPES-buffered Krebs solution (5 mM HEPES, pH 7.4; 140 mM NaCl; 5 mM KCl; 2 mM CaCl₂; 1 mM MgCl₂; and 11 mM glucose). Fluorescence measurements were conducted using a FlexStation 3 fluorometer (Molecular Devices) at 37 °C. The R-CEPIA1er was excited at 560 nm, emitted at 610 nm, and captured every 10 seconds over 300 seconds. […] The fluorescence changes (F/F₀) were calculated by dividing the average fluorescence of the last 100 seconds (F) by that of the first 100 seconds (F₀). All measurements were performed in triplicate.

[2] = test system: WT RyR2; assay: Time-lapse [Ca2+]ER measurement, HEK293 cells expressing WT RyR2; type: cell-based; settings: for ER luminal [Ca2+] change (F/F0): Fig. 5D source data, single replicates
Protocol: (§1) HEK293 cells stably expressing R-CEPIA1er and RyRs (WT RyR1, RyR1-W881A, RyR1-W995A, RyR1-R2163C, and WT RyR2)[26],[27] were used in this study. Briefly, the cells were seeded at a density of 2 × 10⁴ cells/well in a 96-well black, clear-bottom plate (Corning). Doxycycline (2 µg/mL) was added 12 h after seeding, and the medium was replaced 24 h later with HEPES-buffered Krebs solution (5 mM HEPES, pH 7.4; 140 mM NaCl; 5 mM KCl; 2 mM CaCl₂; 1 mM MgCl₂; and 11 mM glucose). Fluorescence measurements were conducted using a FlexStation 3 fluorometer (Molecular Devices) at 37 °C. The R-CEPIA1er was excited at 560 nm, emitted at 610 nm, and captured every 10 seconds over 300 seconds. Different concentrations of compound, dissolved in buffer containing 1% DMSO, were added 100 s after recording began. The fluorescence changes (F/F₀) were calculated by dividing the average fluorescence of the last 100 seconds (F) by that of the first 100 seconds (F₀). All measurements were performed in triplicate.

[3] = target: T2, RyR1 W881A (Oryctolagus cuniculus, UniProt P11716, W882A); assay: Time-lapse [Ca2+]ER measurement, HEK293 cells expressing RyR1 W881A; type: cell-based; settings: 4 mM caffeine; for ER luminal [Ca2+] change (F/F0): Fig. 5H source data, RyR1-W881A, single replicates
T2 construct: expressed in transfected cells
Protocol: as §1

[4] = target: T3, RyR1 W995A (Oryctolagus cuniculus, UniProt P11716, W996A); assay: Time-lapse [Ca2+]ER measurement, HEK293 cells expressing RyR1 W995A; type: cell-based; settings: 4 mM caffeine; for ER luminal [Ca2+] change (F/F0): Fig. 5H source data, RyR1-W995A, single replicates
T3 construct: expressed in transfected cells
Protocol: as §1

[5] = target: T4, WT RyR1 (Oryctolagus cuniculus, UniProt P11716); assay: Ca2+-dependent [3H]ryanodine binding, microsomes; type: biochemical; settings: for [3H]ryanodine binding (B/Bmax): Fig. 5C source data, RI-2 100 μM, single replicates
T4 construct: expressed in transfected cells
Protocol: The assay was performed as previously described[44],[45] with minor modifications. Briefly, microsomes from HEK293 cells stably expressing WT RyR1 were incubated with 5 nM [³H]ryanodine for 5 h at 25 °C in a medium containing 0.17 M NaCl, 20 mM MOPSO (pH 7.0), 2 mM dithiothreitol, 1 mM β,γ-methyleneadenosine 5′-triphosphate, and free Ca²⁺ buffered with 10 mM EGTA at varying concentrations. Free Ca²⁺ levels were calculated using WEBMAXC […][46]. Protein-bound [³H]Ryanodine (B) was isolated by filtration through polyethyleneimine-treated GF/B filters (Whatman) using a Micro 96 Cell Harvester (Skatron Instruments). Nonspecific binding was assessed by adding 20 µM unlabeled ryanodine. The maximum binding capacity of [³H]ryanodine (Bmax) was determined via Scatchard plot analysis with various concentrations (3–20 nM) of [³H]ryanodine in a high-salt medium containing 1 M NaCl. The resulting B/Bmax values represent the average activity of the cells.

[6] = target: T4, WT RyR1; assay: Time-lapse [Ca2+]ER measurement, HEK293 cells expressing WT RyR1; type: cell-based; settings: Fig. 5H source data, 4 mM caffeine, single replicates

SMILES: O=C(C[C@@H](NCCCO)C(=O)O)Nc1ccc2ccccc2c1 [RI-2]
- [Ca2+]ER change (F/F0) ([1]; 100 µM compound, compared with 2.5% DMSO, Fig. S10 source data, single replicates): 1.393 and 1.514 and 1.475
- ER luminal [Ca2+] change (F/F0) ([1]; RI-2 0.1 uM, single replicates): 0.9503 and 1.0903 and 0.9717
- ER luminal [Ca2+] change (F/F0) ([1]; RI-2 0.5 uM, single replicates): 0.9981 and 0.9736 and 1.043
- ER luminal [Ca2+] change (F/F0) ([1]; RI-2 1 uM, single replicates): 1.073 and 0.9956 and 0.9903
- ER luminal [Ca2+] change (F/F0) ([1]; RI-2 5 uM, single replicates): 1.035 and 0.9806 and 0.9738
- ER luminal [Ca2+] change (F/F0) ([1]; RI-2 10 uM, single replicates): 1.082 and 1.203 and 1.117
- ER luminal [Ca2+] change (F/F0) ([1]; RI-2 25 uM, single replicates): 1.365 and 1.221 and 1.3399
- ER luminal [Ca2+] change (F/F0) ([1]; RI-2 50 uM, single replicates): 1.514 and 1.709 and 1.462
- ER luminal [Ca2+] change (F/F0) ([1]; RI-2 75 uM, single replicates): 1.641 and 1.709 and 1.614
- ER luminal [Ca2+] change (F/F0) ([1]; RI-2 100 uM, single replicates): 1.752 and 1.723 and 1.637
- IC50 ([1]; HEK293 cells stably expressing RyR1 R2163C, ER Ca2+ fluorescence, dose-dependent): 28 µM
- ER luminal [Ca2+] change (F/F0) ([2]; RI-2 0.1 uM): 1.012 and 0.991 and 0.9966
- ER luminal [Ca2+] change (F/F0) ([2]; RI-2 0.3 uM): 1.053 and 1.031 and 0.9893
- ER luminal [Ca2+] change (F/F0) ([2]; RI-2 1 uM): 1.071 and 0.9532 and 1.019
- ER luminal [Ca2+] change (F/F0) ([2]; RI-2 3 uM): 0.989 and 1.026 and 1.009
- ER luminal [Ca2+] change (F/F0) ([2]; RI-2 10 uM): 1.0308 and 1.04 and 0.9817
- ER luminal [Ca2+] change (F/F0) ([2]; RI-2 30 uM): 1.051 and 0.9858 and 1.027
- ER luminal [Ca2+] change (F/F0) ([2]; RI-2 100 uM): 1.1169 and 1.011 and 1.1
- effect on ER luminal [Ca2+] ([2]; dose-dependent [Ca2+]ER measurements): no significant effect
- ER luminal [Ca2+] change (F/F0) ([3]; RI-2 0.1 uM): 0.9939 and 0.9815 and 1.025
- ER luminal [Ca2+] change (F/F0) ([3]; RI-2 0.3 uM): 0.9808 and 0.9609 and 0.9633
- ER luminal [Ca2+] change (F/F0) ([3]; RI-2 1 uM): 0.959 and 0.9789 and 1.039
- ER luminal [Ca2+] change (F/F0) ([3]; RI-2 3 uM): 0.968 and 1.003 and 1.025
- ER luminal [Ca2+] change (F/F0) ([3]; RI-2 10 uM): 0.9988 and 0.9974 and 1.012
- ER luminal [Ca2+] change (F/F0) ([3]; RI-2 30 uM): 1.035 and 0.9972 and 1.041
- ER luminal [Ca2+] change (F/F0) ([3]; RI-2 100 uM): 0.9975 and 1.115 and 0.9708
- inhibitory effect in time-lapse ER Ca2+ measurements ([3]; RyR1 W881A): completely lost
- ER luminal [Ca2+] change (F/F0) ([4]; RI-2 0.1 uM): 1.018 and 1 and 0.9822
- ER luminal [Ca2+] change (F/F0) ([4]; RI-2 0.3 uM): 1.035 and 1.023 and 0.9731
- ER luminal [Ca2+] change (F/F0) ([4]; RI-2 1 uM): 1.011 and 1.046 and 0.9965
- ER luminal [Ca2+] change (F/F0) ([4]; RI-2 3 uM): 1.0547 and 1.017 and 1.01
- ER luminal [Ca2+] change (F/F0) ([4]; RI-2 10 uM): 1.05 and 1.027 and 0.98
- ER luminal [Ca2+] change (F/F0) ([4]; RI-2 30 uM): 1.073 and 0.9504 and 1.033
- ER luminal [Ca2+] change (F/F0) ([4]; RI-2 100 uM): 0.9659 and 1.079 and 1.107
- inhibitory effect in time-lapse ER Ca2+ measurements ([4]; RyR1 W995A): completely lost
- effect on Ca2+-dependent [3H]ryanodine binding ([5]; 100 uM RI-2): inhibitory effect
- [3H]ryanodine binding (B/Bmax) ([5]; pCa 2.04): 0.002952 (2×) and 0.002725 and -0.000227
- [3H]ryanodine binding (B/Bmax) ([5]; pCa 2.67): 0.005451 and 0.006359 and 0.002952 and 0.002725
- [3H]ryanodine binding (B/Bmax) ([5]; pCa 3.39): 0.01453 and 0.0134 and 0.008857 (2×)
- [3H]ryanodine binding (B/Bmax) ([5]; pCa 4.03): 0.02816 and 0.03452 and 0.02475 and 0.02703
- [3H]ryanodine binding (B/Bmax) ([5]; pCa 4.66): 0.04474 and 0.04315 and 0.03702 and 0.03429
- [3H]ryanodine binding (B/Bmax) ([5]; pCa 5.03): 0.04565 and 0.04292 and 0.03884 and 0.03702
- [3H]ryanodine binding (B/Bmax) ([5]; pCa 5.42): 0.0293 and 0.03838 and 0.02362 and 0.0243
- [3H]ryanodine binding (B/Bmax) ([5]; pCa 6): 0.009312 and 0.01272 and 0.009084 and 0.003634
- [3H]ryanodine binding (B/Bmax) ([5]; pCa 6.54): 0.005678 and 0.003861 and -0.000454 and 0.00159
- [3H]ryanodine binding (B/Bmax) ([5]; pCa 6.97): 0.004088 and 0.006813 and 0.002044 and 0.0009084
- [3H]ryanodine binding (B/Bmax) ([5]; pCa 7.49): 0.001136 and 0.002044 (2×) and 0.001363
- ER luminal [Ca2+] change (F/F0) ([6]; RI-2 0.1 uM): 0.9624 and 0.9803 and 0.9793
- ER luminal [Ca2+] change (F/F0) ([6]; RI-2 0.3 uM): 0.9865 and 0.9725 and 0.9809
- ER luminal [Ca2+] change (F/F0) ([6]; RI-2 1 uM): 1.001 and 1.0002 and 0.9956
- ER luminal [Ca2+] change (F/F0) ([6]; RI-2 3 uM): 1.043 and 1.036 and 1.039
- ER luminal [Ca2+] change (F/F0) ([6]; RI-2 10 uM): 1.092 and 1.122 and 1.066
- ER luminal [Ca2+] change (F/F0) ([6]; RI-2 30 uM): 1.229 and 1.248 and 1.218
- ER luminal [Ca2+] change (F/F0) ([6]; RI-2 100 uM): 1.681 and 1.622 and 1.659
